Here are results for one compound from patent US20260256772A1, “BENZOTHIAZOLE COMPOUND AND USE THEREOF” (NANJING REJU THERAPEUTICS, INC., priority 2022, published 2026).

Data set [1] can be described thus: Solubility test in pure water. The data set is classed as physicochemical. The protocol:
The following test protocol was used for the solubility tests of the compounds of the present invention:
1). The compounds to be tested were precisely weighed respectively, and formulated to a corresponding concentration (l mg/mL or 10 mg/mL) by adding a corresponding volume of pure water vortically shook for 1 minute every 3 minutes for 15 minutes to observe the dissolution, and then the dissolution was observed again after standing for 1 hour. 2). 0.2 mL of 1 mg/mL compound or sodium salt thereof was took, diluted to 0.1 mg/mL respectively by adding 1.8 mL water, vortically shook for 5 minutes to observe the dissolution, and then the dissolution was observed again after standing for 1 hour. 3). 1 mL of 1 mg/mL compound or sodium salt thereof was took, diluted to 0.5 mg/mL by adding 1 mL water, vortically shook for 5 minutes to observe the dissolution, and then the dissolution was observed again after standing for 1 hour.

For data set [2], the system named is platelets. To be noted: under in vivo conditions; cited from earlier work.
Data set [3] relates to platelets. The experiment in a line: Platelet toxicity test in mice (platelet count). The data set is classed as in vivo. To be noted: mice, 0.5 mg/kg single intraperitoneal injection, blood at 6 hours, FIG. 1. The procedure: In this test example, C57 mice were chosen to detect the effect of the target compounds on platelets.
7 to 8 weeks old […] mice were randomly divided into vehicle group and compound group. The test compound (0.5 mg/kg) or blank vehicle was administrated via single intraperitoneal injection. Blood was collected from the retroorbital venous plexus of the mice at 6 hours, and placed in a blood routine tube containing anticoagulant EDTA-K2. After shaking gently, the blood physiological indicators were measured using a hematology analyzer, with the platelet count as the target parameter for this platelet toxicity test.

The conditions of data set [4]: rats; cited from earlier work.
Data set [5] relates to senescent cells. Nature of the data set: Senescent cell killing, CellTiter-Glo cell viability. It counts as cell-based, human, mouse. Particulars: activity of killing senescent cells; cell type not specified. The source says: In this test example, human non-small cell lung cancer cell line (A549 cells), human embryonic lung fibroblast cell line (IMR90 cells), human retinal pigment epithelial cells (RPE cells), mouse chondrocytes, and mouse skin fibroblasts were selected. The above cells were induced by etoposide ([…]) to obtain their senescent cells. The effect of the target compounds on the viability of normal and senescent cells above was examined, thus assessing the specific killing effect of the compounds on senescent cells above.
Briefly, senescent and normal cells above were selected and plated separately (96-well plates). […] 2A to 2E.
On the technique in general: In ATP-based viability assays light output follows the ATP content of the culture.

For data set [6] the following is noted: cited from earlier work.

Molecules are shown by their SMILES.

Consider `Cc1c(-c2ccc(N3CCc4cccc(C(=O)Nc5nc6ccccc6s5)c4C3)nc2C(=O)O)cnn1CC12CC3CC(CC(C3)C1)C2` [Compound A-1331852], for which the During shaking result in data set [1] (formulated concentration 0.10 mg/mL in pure water) and in data set [1] (formulated concentration 1 mg/mL in pure water) was “Visible solute particles” throughout. In data set [2], the platelet toxicity entry is reported as “significant platelet toxicity”. Besides, the “platelet toxicity (platelet count)” value in data set [3] is given as “severe platelet toxicity”. In addition, in data set [4], the oral bioavailability result is listed as “about 11%”. In data set [5], this compound had an IC50 of 0.2 to 1 µM. Moreover, the solubility in water result in data set [6] is on record as “low solubility in water”.

By IC50 is commonly meant the concentration that gives 50% inhibition. A higher IC50 goes with a need for much substance.
